# Source: PubChem BioAssay AID334 (DTP/NCI, 2004)
# Where “and” joins values, the source holds several entries; their conditions need not be identical. Equal entries are not always repeated. Toxic doses and inconclusive results are not listed.
# System: CD2F1 mice, intracerebral P388 leukemia, median survival T/C%
# Assay: NCI In Vivo Anticancer Drug Screen. Data for tumor model P388 Leukemia (intracerebral) in CD2F1 (CDF1) mice
# Details: endpoint: median survival time, higher = longer survival
# Protocol: The antitumor activity of compounds was measured in mice bearing transplantable tumors. Survival or tumor size were measured and the results are expressed as the measurement made in the treated group (T) divided by the measurement made in the vehicle treated control group (C). The tumor model used in this assay is P388 Leukemia (intracerebral) in CD2F1 (CDF1) mice
# [1] = dose: 8.0 mg/kg/injection, schedule: Q01DX009 (ip), vehicle: Klucel (hydroxypropylcellulose) (HPC)
# [2] = dose: 16.0 mg/kg/injection, schedule: Q01DX009 (ip), vehicle: Klucel (hydroxypropylcellulose) (HPC)
# [3] = dose: 32.0 mg/kg/injection, schedule: Q01DX009 (ip), vehicle: Klucel (hydroxypropylcellulose) (HPC)
# [4] = dose: 64.0 mg/kg/injection, schedule: Q01DX009 (ip), vehicle: Klucel (hydroxypropylcellulose) (HPC)
# [5] = dose: 128.0 mg/kg/injection, schedule: Q01DX009 (ip), vehicle: Klucel (hydroxypropylcellulose) (HPC)
# [6] = dose: 256.0 mg/kg/injection, schedule: Q01DX009 (ip), vehicle: Klucel (hydroxypropylcellulose) (HPC)
# [7] = dose: 12.5 mg/kg/injection, schedule: Q01DX009 (ip), vehicle: saline with Tween-80
# [8] = dose: 25.0 mg/kg/injection, schedule: Q01DX009 (ip), vehicle: saline with Tween-80
# [9] = dose: 50.0 mg/kg/injection, schedule: Q01DX009 (ip), vehicle: saline with Tween-80
# [10] = dose: 100.0 mg/kg/injection, schedule: Q01DX009 (ip), vehicle: saline with Tween-80
structure (smiles),measurement,setting,value
CCN(CC)c1ccc2cc3ccc(=[N+](CC)CC)cc-3oc2c1,T/C,"dose: 4.0 mg/kg/injection, schedule: Q01DX005 (ip), vehicle: suspension in saline",102 % of control
same,T/C,"dose: 8.0 mg/kg/injection, schedule: Q01DX005 (ip), vehicle: suspension in saline",103 % of control
CC(=O)O[C@]1(C(C)=O)CC[C@H]2[C@@H]3C[C@H](C)C4=CC(=O)CC[C@]4(C)[C@H]3CC[C@@]21C,T/C,[1],92 % of control and 104 % of control
same,T/C,[2],100 % of control and 102 % of control
same,T/C,[3],93 % of control and 103 % of control
same,T/C,[4],90 % of control and 99 % of control
same,T/C,[5],90 % of control and 101 % of control
same,T/C,[6],96 % of control and 103 % of control
CCC1=C(c2ccc(OC)cc2)CCC(C(=O)O)C1C (stereo unspecified),T/C,"dose: 4.0 mg/kg/injection, schedule: Q01DX005 (ip), vehicle: saline",99 % of control and 104 % of control
same,T/C,"dose: 8.0 mg/kg/injection, schedule: Q01DX005 (ip), vehicle: saline",95 % of control and 100 % of control
same,T/C,"dose: 16.0 mg/kg/injection, schedule: Q01DX005 (ip), vehicle: saline",90 % of control and 98 % of control
same,T/C,"dose: 32.0 mg/kg/injection, schedule: Q01DX005 (ip), vehicle: saline",96 % of control and 102 % of control
NC(C/[N+]([O-])=N/O)C(=O)O (stereo unspecified),T/C,"dose: 7.02 mg/kg/injection, schedule: Q01DX009 (ip), vehicle: saline with Tween-80",90 % of control
same,T/C,"dose: 7.02 mg/kg/injection, schedule: Q01DX009 (ip), vehicle: saline",110 % of control
same,T/C,"dose: 14.06 mg/kg/injection, schedule: Q01DX009 (ip), vehicle: saline with Tween-80",98 % of control
same,T/C,"dose: 14.06 mg/kg/injection, schedule: Q01DX009 (ip), vehicle: saline",99 % of control
same,T/C,"dose: 28.12 mg/kg/injection, schedule: Q01DX009 (ip), vehicle: saline with Tween-80",95 % of control
same,T/C,"dose: 28.12 mg/kg/injection, schedule: Q01DX009 (ip), vehicle: saline",108 % of control
same,T/C,"dose: 56.25 mg/kg/injection, schedule: Q01DX009 (ip), vehicle: saline with Tween-80",106 % of control
same,T/C,"dose: 56.25 mg/kg/injection, schedule: Q01DX009 (ip), vehicle: saline",108 % of control and 112 % of control
same,T/C,"dose: 112.5 mg/kg/injection, schedule: Q01DX009 (ip), vehicle: saline with Tween-80",96 % of control
CCCCCC(=O)NC(Cc1ccc(N(CCCl)CCCl)cc1)C(=O)O (stereo unspecified),T/C,"dose: 1.3 mg/kg/injection, schedule: Q03HX008 (ip), vehicle: saline",94 % of control
same,T/C,"dose: 2.6 mg/kg/injection, schedule: Q03HX008 (ip), vehicle: saline",105 % of control
same,T/C,"dose: 5.3 mg/kg/injection, schedule: Q03HX008 (ip), vehicle: saline",105 % of control
same,T/C,"dose: 10.6 mg/kg/injection, schedule: Q03HX008 (ip), vehicle: saline",100 % of control
same,T/C,"dose: 21.2 mg/kg/injection, schedule: Q03HX008 (ip), vehicle: saline",115 % of control
CN(C)c1nc(N(C)C)nc(N(C)C)n1,T/C,"dose: 100.0 mg/kg/injection, schedule: Q01DX005 (ip), vehicle: saline with Tween-80",104 % of control
same,T/C,"dose: 100.0 mg/kg/injection, schedule: Q01DX005 (ip), vehicle: suspension in saline",100 % of control
same,T/C,"dose: 200.0 mg/kg/injection, schedule: Q01DX005 (ip), vehicle: saline with Tween-80",111 % of control
same,T/C,"dose: 200.0 mg/kg/injection, schedule: Q01DX005 (ip), vehicle: suspension in saline",107 % of control
same,T/C,"dose: 400.0 mg/kg/injection, schedule: Q01DX005 (ip), vehicle: saline with Tween-80",111 % of control
same,T/C,"dose: 400.0 mg/kg/injection, schedule: Q01DX005 (ip), vehicle: suspension in saline",89 % of control
Cc1cnc(/C=N\NC(N)=S)c2cccc(N)c12,T/C,[7],99 % of control
same,T/C,[8],102 % of control
same,T/C,[9],104 % of control
same,T/C,[10],98 % of control
C[C@]12C=CC(=O)C=C1CC[C@@H]1[C@@H]2C(=O)C[C@@]2(C)[C@H]1CC[C@]2(O)C(=O)CO,T/C,[1],95 % of control and 99 % of control
same,T/C,[2],100 % of control and 104 % of control
same,T/C,[3],98 % of control and 102 % of control
same,T/C,[4],99 % of control and 104 % of control
same,T/C,[5],95 % of control and 102 % of control
same,T/C,[6],102 % of control and 104 % of control
same,T/C,"dose: 512.0 mg/kg/injection, schedule: Q01DX009 (ip), vehicle: Klucel (hydroxypropylcellulose) (HPC)",95 % of control and 99 % of control
CC1(C)N=C(N)N=C(N)N1c1ccc(CCC(=O)Nc2ccc(S(=O)(=O)F)cc2)cc1,T/C,"dose: 50.0 mg/kg/injection, schedule: Q01DX009 (ip), vehicle: saline",111 % of control
same,T/C,"dose: 100.0 mg/kg/injection, schedule: Q01DX009 (ip), vehicle: saline",100 % of control
CC(=O)NNC(=O)c1ccccn1,T/C,"dose: 100.0 mg/kg/injection, schedule: Q01DX005 (ip), vehicle: Klucel (hydroxypropylcellulose) (HPC)",116 % of control and 100 % of control
same,T/C,"dose: 200.0 mg/kg/injection, schedule: Q01DX005 (ip), vehicle: Klucel (hydroxypropylcellulose) (HPC)",113 % of control and 100 % of control
CC[n+]1c(-c2ccccc2)c2cc(N)ccc2c2ccc(N)cc21,T/C,"dose: 6.0 mg/kg/injection, schedule: Q01DX005 (ip), vehicle: saline",102 % of control
same,T/C,"dose: 12.0 mg/kg/injection, schedule: Q01DX005 (ip), vehicle: saline",99 % of control and 106 % of control
COc1cc([C@@H]2c3cc4c(cc3[C@@H](OC3OC5CO[C@@H](c6cccs6)OC5C(O)C3O)[C@H]3COC(=O)[C@H]23)OCO4)cc(OC)c1O (stereo partly specified),T/C,"dose: 0.25 mg/kg/injection, schedule: Q01DX009 (ip), vehicle: saline",108 % of control
same,T/C,"dose: 0.5 mg/kg/injection, schedule: Q01DX009 (ip), vehicle: saline",116 % of control
same,T/C,"dose: 2.0 mg/kg/injection, schedule: Q01DX009 (ip), vehicle: saline",152 % of control
same,T/C,"dose: 4.0 mg/kg/injection, schedule: Q01DX009 (ip), vehicle: saline",119 % of control
COc1cc(NC(=O)CN(CCCl)CCCl)cc(OC)c1OC,T/C,[7],113 % of control and 102 % of control
same,T/C,[8],104 % of control and 107 % of control
same,T/C,[9],114 % of control and 118 % of control
same,T/C,[10],114 % of control
same,T/C,"dose: 200.0 mg/kg/injection, schedule: Q01DX009 (ip), vehicle: saline with Tween-80",87 % of control
CCC(=O)O[C@H]1CC[C@H]2[C@@H]3CCC4=CC(=O)CC[C@]4(C)[C@H]3CC[C@]12C,T/C,"dose: 8.0 mg/kg/injection, schedule: Q01DX009 (ip), vehicle: saline with Tween-80",105 % of control
same,T/C,"dose: 8.0 mg/kg/injection, schedule: Q01DX009 (ip), vehicle: saline",178 % of control
same,T/C,"dose: 16.0 mg/kg/injection, schedule: Q01DX009 (ip), vehicle: saline with Tween-80",108 % of control
same,T/C,"dose: 16.0 mg/kg/injection, schedule: Q01DX009 (ip), vehicle: saline",106 % of control
same,T/C,"dose: 32.0 mg/kg/injection, schedule: Q01DX009 (ip), vehicle: saline with Tween-80",105 % of control
same,T/C,"dose: 32.0 mg/kg/injection, schedule: Q01DX009 (ip), vehicle: saline",99 % of control
same,T/C,"dose: 64.0 mg/kg/injection, schedule: Q01DX009 (ip), vehicle: saline with Tween-80",117 % of control
same,T/C,"dose: 64.0 mg/kg/injection, schedule: Q01DX009 (ip), vehicle: saline",100 % of control
same,T/C,"dose: 128.0 mg/kg/injection, schedule: Q01DX009 (ip), vehicle: saline with Tween-80",100 % of control
same,T/C,"dose: 128.0 mg/kg/injection, schedule: Q01DX009 (ip), vehicle: saline",100 % of control
same,T/C,"dose: 256.0 mg/kg/injection, schedule: Q01DX009 (ip), vehicle: saline with Tween-80",107 % of control
same,T/C,"dose: 256.0 mg/kg/injection, schedule: Q01DX009 (ip), vehicle: saline",100 % of control
same,T/C,"dose: 512.0 mg/kg/injection, schedule: Q01DX009 (ip), vehicle: saline with Tween-80",106 % of control
same,T/C,"dose: 512.0 mg/kg/injection, schedule: Q01DX009 (ip), vehicle: saline",109 % of control
CC(=O)O[C@H]1C(=O)[C@@]2(C)[C@H]([C@H](OC(=O)c3ccccc3)[C@]3(O)C[C@H](OC(=O)[C@H](O)[C@@H](NC(=O)c4ccccc4)c4ccccc4)C(C)=C1C3(C)C)[C@]1(OC(C)=O)CO[C@@H]1C[C@@H]2O,T/C,"dose: 2.5 mg/kg/injection, schedule: Q01DX009 (ip), vehicle: Klucel (hydroxypropylcellulose) (HPC)",100 % of control
same,T/C,"dose: 5.0 mg/kg/injection, schedule: Q01DX009 (ip), vehicle: Klucel (hydroxypropylcellulose) (HPC)",103 % of control
same,T/C,"dose: 10.0 mg/kg/injection, schedule: Q01DX009 (ip), vehicle: Klucel (hydroxypropylcellulose) (HPC)",96 % of control
same,T/C,"dose: 20.0 mg/kg/injection, schedule: Q01DX009 (ip), vehicle: Klucel (hydroxypropylcellulose) (HPC)",86 % of control
